One series relates to ovulation. In words: Ovulation Inhibition. Conditions: in vivo.
The next series deals with alkaline phosphatase. As to the kind of experiment: cells. Conditions: read-out: EC50 (alkaline phosphatase data, printed in HPR CV-1 column).

The source of these data is US7081457B2 (Wyeth, priority 1999, dated 2006).

pEC50: −log10 of the molar value.

Consider `CC1(C)OC(=S)Nc2ccc(-c3csc(C#N)c3)cc21` [Compound 2, 4-(4,4-Dimethyl-2-thioxo-1,4-dihydro-2H1-benzo [d][1,3]oxazin-6-yl)-thiophene-2-carbonitrile], for which the “Ovulation Inhibition ED100” value with ovulation was determined as 1 mg/kg.
Regarding `CC1(C)OC(=S)Nc2ccc(-c3cccc(C#N)c3)cc21` [Compound 4, 3-(4,4-Dimethyl-2-thioxo-1,4-dihydro-2H-benzo[d][1,3]oxazin-6-yl)-benzonitrile], the melting point (commonly the temperature of the solid-liquid transition) is 236 to 237 °C. For the same molecule, the negative logarithm of the EC50 (pEC50) (in general, the negative decadic logarithm of the EC50, by convention in mol/L) in the series on alkaline phosphatase is 9.40.
Molecule `Cc1cc(C#N)sc1-c1ccc2c(c1)C(C)(C)OC(=S)N2` [Example 16, 5-(4,4-Dimethyl-2-thioxo-1,4-dihydro-2H-3,1-benzoxazin-6-yl)-4-methylthiophene-2-carbonitrile] yielded a melting point of 211 to 212 °C.
Molecule `CC1(C)OC(=S)Nc2ccc(-c3cc(F)cc(Cl)c3)cc21` [Example 27, 6-(3-Chloro-5-fluorophenyl)-4,4-dimethyl-1,4-dihydro-2H-3,1-benzoxazine-2-thione] gave a melting point of 204 to 205 °C.
Consider `CC1(C)OC(=S)Nc2ccc(-c3cc(F)cc(C(F)(F)F)c3)cc21` [Example 43, 6-[3-Fluoro-5-(trifluoromethyl)phenyl]-4,4-dimethyl-1,4-dihydro-2H-3,1-benzoxazine-2-thione], for which the melting point is 204 to 206 °C.
Molecule `CC1(C)OC(=S)Nc2ccc(-c3cc(C#N)ccc3F)cc21` [Example 47, 3-(4,4-Dimethyl-2-thioxo-1,4-dihydro-2H-3,1-benzoxazin-6-yl)-4-fluorobenzonitrile] came in with a melting point of 250 to 251 °C.
